For 34 compounds, IC50 results are on record in ChEMBL document CHEMBL1128949, “Novel tricyclic aminoacetyl and sulfonamide inhibitors of Ras farnesyl protein transferase” (Bioorg Med Chem Lett, 1996).

One may read the IC50 as the midpoint of a concentration-inhibition curve. Lower therefore signals greater potency.

Each structure is given as a SMILES string. Some results are limits rather than exact numbers.

The target in the first assay is T1, Protein farnesyltransferase (Homo sapiens, UniProt P49354+P49356). Nature of the assay: Inhibitory activity against Protein farnesyltransferase (Inactive). The format is protein-complex assay.
For the compound `CCCCCCCCCCCS(=O)(=O)N1CCC(=C2c3ccc(Cl)cc3CCc3cccnc32)CC1`, the IC50 result was “Not Active”.
As to `CCCCCCCCCCS(=O)(=O)N1CCC(=C2c3ccc(Cl)cc3CCc3cccnc32)CC1`, the IC50 result is “Not Active”.

Another assay addresses T1, Protein farnesyltransferase. The assay is described as follows: Inhibitory activity against protein farnesyltransferase. The format is protein-complex assay.
`O=C(N[C@H](Cc1ccc(O)cc1)C(=O)N1CCC(=C2c3ccc(Cl)cc3CCc3cccnc32)CC1)OCc1ccccc1` had an IC50 of 1.2 µM.
For `O=C(CNC(c1ccccc1)(c1ccccc1)c1ccccc1)N1CCC(=C2c3ccc(Cl)cc3CCc3cccnc32)CC1`, the IC50 is > 10 µM.
The compound `O=S(=O)(c1cccs1)N1CCC(=C2c3ccc(Cl)cc3CCc3cccnc32)CC1` displayed a 50% inhibitory concentration (IC50) of 13 µM.
Take `O=C(CN1C(=O)c2ccccc2S1(=O)=O)N1CCC(=C2c3ccc(Cl)cc3CCc3cccnc32)CC1`: the IC50 turned out to be 2 µM.
For the compound `O=C(NCC(=O)N1CCC(=C2c3ccc(Cl)cc3CCc3cccnc32)CC1)OCc1ccccc1`, the IC50 came to 8.5 µM.
Still for that read-out and setting: then `O=C(CNCc1ccccc1)N1CCC(=C2c3ccc(Cl)cc3CCc3cccnc32)CC1`, with 9.6 µM; and `O=S(=O)(c1ccc2ccccc2c1)N1CCC(=C2c3ccc(Cl)cc3CCc3cccnc32)CC1`, with > 12 µM; and `CS(=O)(=O)N1CCC(=C2c3ccc(Cl)cc3CCc3cccnc32)CC1`, with 1.9 µM.
In the case of `CCCCCCCCS(=O)(=O)N1CCC(=C2c3ccc(Cl)cc3CCc3cccnc32)CC1`, the IC50 is > 12 µM.
Take `C=CS(=O)(=O)N1CCC(=C2c3ccc(Cl)cc3CCc3cccnc32)CC1`: it took 1 µM to reach half-maximal inhibition (IC50).
For `O=C(CN1C(=O)c2ccccc2C1=O)N1CCC(=C2c3ccc(Cl)cc3CCc3cccnc32)CC1`, the midpoint of inhibition, the IC50, lay at 0.66 µM.
`COc1ccc(CSC[C@@H](N)C(=O)N2CCC(=C3c4ccc(Cl)cc4CCc4cccnc43)CC2)cc1` had an IC50 of 6.29 µM.
Take `O=[N+]([O-])c1ccc(S(=O)(=O)N2CCC(=C3c4ccc(Cl)cc4CCc4cccnc43)CC2)cc1`: the IC50 was > 12 µM.
On the same count and under the same terms, in the case of `CSCC[C@H](C(=O)N1CCC(=C2c3ccc(Cl)cc3CCc3cccnc32)CC1)N1C(=O)c2ccccc2C1=O` it was 4.7 µM; in that of `CC(C)(C)OC(=O)NCC(=O)N1CCC(=C2c3ccc(Cl)cc3CCc3cccnc32)CC1`, 6.8 µM.
For the compound `CC(C)C[C@H](C(=O)N1CCC(=C2c3ccc(Cl)cc3CCc3cccnc32)CC1)N1C(=O)c2ccccc2C1=O`, the IC50 was > 10 µM.
`CC1(C)C2CCC1(CS(=O)(=O)N1CCC(=C3c4ccc(Cl)cc4CCc4cccnc43)CC1)C(=O)C2` (centres undefined) returned an IC50 of 11.4 µM. In other words, the double-digit micromolar range.
The compound `O=C([C@@H](Cc1c[nH]cn1)N1C(=O)c2ccccc2C1=O)N1CCC(=C2c3ccc(Cl)cc3CCc3cccnc32)CC1` displayed an IC50 of 3.6 µM. This IC50 is about 3.2-fold lower than that of the compound before.
In the case of `O=C([C@@H](Cc1ccccc1)N1C(=O)c2ccccc2C1=O)N1CCC(=C2c3ccc(Cl)cc3CCc3cccnc32)CC1`, the IC50 was > 10 µM.
Compound `O=C(CC[C@H](C(=O)N1CCC(=C2c3ccc(Cl)cc3CCc3cccnc32)CC1)N1C(=O)c2ccccc2C1=O)Nc1ccccc1` returned an IC50 of 4.8 µM.
As to `CN(C)S(=O)(=O)N1CCC(=C2c3ccc(Cl)cc3CCc3cccnc32)CC1`, the 50% inhibitory concentration (IC50) came out at 1.9 µM.
Still for that read-out and setting: then `O=C(Cc1ccccc1)NCC(=O)N1CCC(=C2c3ccc(Cl)cc3CCc3cccnc32)CC1`, with 8.4 µM; and `COc1ccc(CSC[C@@H](NC(=O)OC(C)(C)C)C(=O)N2CCC(=C3c4ccc(Cl)cc4CCc4cccnc43)CC2)cc1`, with 3.05 µM.
Consider `CC1(C)C2CCC1(CS(=O)(=O)N1CCC(=C3c4ccc(Cl)cc4CCc4cccnc43)CC1)C(O)C2` (centres undefined), for which the IC50 was 8.2 µM.
The compound `C[C@H](C(=O)N1CCC(=C2c3ccc(Cl)cc3CCc3cccnc32)CC1)N1C(=O)c2ccccc2C1=O` came in with an IC50 of 4.6 µM.
As to `CCCCS(=O)(=O)N1CCC(=C2c3ccc(Cl)cc3CCc3cccnc32)CC1`, the IC50 worked out at 4.8 µM.
Turning to `O=C(NCC(=O)N1CCC(=C2c3ccc(Cl)cc3CCc3cccnc32)CC1)c1ccccc1`, the IC50 turned out to be 8.8 µM.
Still for that read-out and setting: in the case of `CCS(=O)(=O)N1CCC(=C2c3ccc(Cl)cc3CCc3cccnc32)CC1` it was 5.2 µM; in that of `O=C(O)c1ccccc1S(=O)(=O)N1CCC(=C2c3ccc(Cl)cc3CCc3cccnc32)CC1`, > 11 µM; in that of `NCC(=O)N1CCC(=C2c3ccc(Cl)cc3CCc3cccnc32)CC1`, 22.3 µM.
`O=S(=O)(Cc1ccccc1)N1CCC(=C2c3ccc(Cl)cc3CCc3cccnc32)CC1` gave an IC50 of 1 µM.
In turn, `COC(=O)c1ccccc1S(=O)(=O)N1CCC(=C2c3ccc(Cl)cc3CCc3cccnc32)CC1` returned an IC50 of 10.6 µM.
